What was measured:
E. coli bacteria [1] = experiment: Motion of suspended single layer CVD graphene with E. coli droplet, antibiotic susceptibility; type: cell-based; conditions: single layer chemical vapour deposited graphene, Lysogeny broth droplet
Method: In the embodiment of FIG. 2 a red helium-neon laser 114 is directed through optical components 115 on the 2D material layer 102 which is placed in a controlled humidity chamber 116. The intensity of the reflected light from the chip 109 is altered by the motion of the micro-organism 105 in the liquid droplet 111 that in turn moves the suspended 2D material 102. This intensity is then measured by a photodiode 117 connected to an oscilloscope 118. In one example a liquid droplet 111 containing micro-organism E. coli bacteria 105 and nutrition Lysogeny broth solution 112 has been dispensed on the sample receiver 101 comprising an array of single layer chemical vapour deposited graphene as the inert suspended layer 102. The motion is read out using the measurement system described in FIG. 2. The motion of the suspended layer is traced in a timeframe of a few seconds in the presence and absence of chemicals 113 and micro-organisms 105.

E. coli bacteria [2] = experiment: Motion of suspended silanized exfoliated 10 nm few layer graphene with adhered E. coli, antibiotic susceptibility; type: cell-based
Method: In the embodiment of FIG. 2 a red helium-neon laser 114 is directed through optical components 115 on the 2D material layer 102 which is placed in a controlled humidity chamber 116. The intensity of the reflected light from the chip 109 is altered by the motion of the micro-organism 105 in the liquid droplet 111 that in turn moves the suspended 2D material 102. This intensity is then measured by a photodiode 117 connected to an oscilloscope 118. In another example a liquid droplet 111 containing micro-organism E. coli bacteria 105 and nutrition Lysogeny broth solution 112 has been dispensed on the sample receiver 101 comprising an array of silanized natural crystal exfoliated 10 nm few layer thick graphene as the suspended material 102. FIGS. 4a, 4b and 4c show the time traces of the suspended layer in a timeframe of twelve minutes.

Question: O=C(N[C@H](CO)[C@H](O)c1ccc([N+](=O)[O-])cc1)C(Cl)Cl [Chloramphenicol] was tested. Which “change of variance of the time traces after adding antibiotic” value (E. coli bacteria [1]; FIG. 3d) did it give?
Answer: drops about three times

Question: What about the “fluctuations of the motion time trace (bacterial metabolic activity) after addition of antibiotic” value (E. coli bacteria [1]; timeframe of a few seconds, FIG. 3c) of the same molecule?
Answer: No fluctuations are observed

Question: And the “change in average amplitude of the amplitude spectrum of the time traces after adding antibiotic” value (E. coli bacteria [2]; FIGS. 5a-b (FIG. 4a vs FIG. 4c))?
Answer: tenfold decrease

Question: What about the “fluctuations of the motion time trace (bacterial metabolic activity) after addition of antibiotic” value (E. coli bacteria [2]; adhered bacteria, timeframe of twelve minutes, FIGS. 4b, 4c) of the same molecule?
Answer: No fluctuations are observed

Question: What about the “change of variance of the time traces after adding antibiotic” value (E. coli bacteria [2]; timeframe of twelve minutes, FIG. 4d) of the same molecule?
Answer: drops about hundred times
